Assay [1] relates to IL-6 production in LPS-stimulated murine spleenocytes. Kind of assay: Inhibition of IL-6 production in LPS-stimulated murine spleenocytes in vitro. The format is cell-based. Conditions: Mus musculus, 50 μM concentration of the compound, read-out: inhibition of interleukin-6 (IL-6) production. As to the method:
Test and reference substances used in an in vitro assays were dissolved in dimethyl sulfoxide (DMSO) (Sigma Chemical Co., USA) at a concentration of 50 mM and were further diluted to test concentrations in appropriate cell culture medium.
After cervical dislocation, mouse spleens were removed using sterile dissection tools. Spleens were transferred to a pre-wetted cell strainer in a 50 mL sterile conical tube and cell suspension was made by gentle puddle. Cells were centrifuged (20 min, 300×g) and resuspended in 2 mL of sterile phosphate buffered saline (PBS) (Sigma Chemical Co., USA). Red blood cells were lysed by addition of 3 mL of sterile water and occasionally gentle shaking for 1 minute. Afterwards, the tube was filled to 40 mL with DMEM medium and centrifuged (20 min, 300×g). Cells were resuspended in DMEM supplemented with 1% FBS and seeded in a 24-well plate, 1×10^6 cells per mL medium.
Final concentrations of 50 μM, 25 μM, 12.5 μM, 6.3 μM and 3.1 μM of test compounds were prepared by diluting a 50 mM DMSO stock in Dulbecco's modified Eagle medium (DMEM) (Gibco, USA) supplemented with 1% heat inactivated fetal bovine serum (FBS) (BioWest, Ringmer, United Kingdom).
Cells were pre-incubated with the test compounds for 3 h at 37° C., in an atmosphere of 5% CO2 and 90% humidity. Afterwards, cells were stimulated with 1 μg/mL lipopolysaccharide (LPS, E. coli 0111:B4, Sigma Chemical Co., USA) and incubated overnight. Concentration of IL-6 was determined in cell supernatants by sandwich ELISA using capture and detection antibodies (R&D Systems, USA) according to the manufacturer's recommendations.
Inhibition (as percentage) was calculated using the following formula:
% inhibition=[1−(concentration of IL-6 in sample−concentration of IL-6 in negative control)/(concentration of IL-6 in positive control−concentration of IL-6 in negative control)]×100.
The positive control refers to LPS-stimulated samples that were not preincubated with the compounds.
The negative control refers to unstimulated and untreated samples.

In the next assay the test system is Male BALB/c mice. The experiment in a line: Cigarette-smoke-induced lung neutrophilia. The format is in vivo. The following applies: oral gavage; for reduction of neutrophil number in BALF, statistical significance: p<0.05 vs vehicle control. As to the method:
Male BALB/c mice (weighing 21-24 g, were randomly grouped, 5 animals per group) were pre-treated with compound (100, 30, 10, 3 and 1 mg/kg body weight) or vehicle (5% DMSO/95% methyl-cellulose 0.5% w/v, positive control) by oral gavage in a volume of 10 mL/kg. 2 hours after compound administration, 10 mice were placed into a plexiglass box (Braintree Scientific, size 10″×4″×4″) with an input port for aerosol and another port for exhaust. Cigarette smoke was introduced through the aerosol port via a peristaltic pump (Masterflex L/S, Digital Economy Drive) set at 40 ml/min. Breathing air was also introduced through the same port via an elbow in the tubing at a rate of 0.4 L/min. With these settings, smoke concentration delivered to the box was approximately 10%. 3 cigarettes (research type 4A1, University of Kentucky Tobacco Institute) were given back-to-back with a 1 min period between each one, when the mice breathed fresh air for one minute. 2 to 3 hours after the first group of cigarettes, 2 additional cigarettes were given, again allowing 1 min between each cigarette. After the last cigarette, the mice were returned to their normal housing. This procedure was carried out for 2 days.
On the 3rd day, mice were euthanized with 0.1 ml Fatal Plus i.p., then bronchoalveolar lavaged with 5×0.7 ml Dulbecco's phosphate-buffered saline (dPBS, in-house Media Prep lab) through a tracheal tube. BALF was spun at 3000 rpm for 10 min, the supernatant discarded, and the cells resuspended with 1 ml dPBS. Slides were made on a cytospin (100 μl fluid, spun at 300 rpm for 5 min), then stained with Diff Quick for differential counts (minimum of 200 cells counted). Total cell counts were performed with a hemocytometer after a dilution with Tuerks solution.
Results are expressed as percentage decrease in number of neutrophils in BALF of treated animals compared to positive control (vehicle treated and smoke challenged animals).

The subject of another assay is male BALB/cJ mice. The experiment in a line: Lung neutrophilia induced by bacterial lipopolysaccharide in male BALB/cJ mice - Method B. The format is in vivo. Conditions: Mus musculus, ip, 24 h, single dose of 100 mg/kg i.p., vs LPS challenged untreated animals. As to the method: For intraperitoneal administration (i.p.) compounds were dissolved in a final concentration of 10 mg/mL. The required amount of compound was first dissolved in dimethylsulfoxide (DMSO, Sigma) and then diluted with 0.5% (w/v) methyl-cellulose so that the final DMSO concentration was 5% (v/v). The obtained solution was applied in a dose volume of 0.1 mL per 10 g of animal. Therefore, the compound dose was 100 mg/kg.
Male BALB/cJ mice (Charles River, Germany), with an average weight of ˜25 g were randomly grouped (n=8 in testing group, 10 in positive control and 6-8 in negative control). Mice received intraperitoneally (i.p.) a single dose of 100 mg/kg of test compound. Two hours after administration, 0.4 μg of LPS (from Escherichia coli serotype 0111:B4, Sigma), dissolved in sterile saline (0.9% NaCl) in a volume of 50 μL, was intranasally administered to all experimental groups except the negative control group, which received the same volume of vehicle (saline). Animals were sacrificed approximately 24 hours after application of LPS in order to obtain bronchoalveolar lavage fluid (BALF), which was used to determine absolute number of cells and the percentage of neutrophils. […] In some experiments neutrophil levels in BALF were assessed by measurement of concentration of a neutrophil-specific enzyme myeloperoxidase (MPO). Results are then expressed as percentage of decrease in myeloperoxidase (MPO) concentration measured in BALF lysates of treated animals compared to positive control (Mouse MPO ELISA Kit, Hycult biotechnology, Nederlands). For this purpose, BALF was sonicated after addition of 1.5% Triton-X-100 (Pharmacia Biotech) in Milli-Q water and frozen at −80° C. until analysed.

[2] abbreviates: Neutrophil, read-out: inhibition of number of neutrophils or decrease in myeloperoxidase concentration in BALF.
The mark [3] stands for this setting: read-out: inhibition of total cell number in BALF.

Read-outs that look alike come from different tables or passages of the source.

With `CCC(=O)NCCCO[C@H]1[C@H](O[C@@H]2[C@@H](C)[C@H](O[C@H]3C[C@@](C)(OC)[C@@H](O)[C@H](C)O3)[C@@H](C)C(=O)O[C@H](CC)[C@@](C)(O)[C@H](O)[C@@H](C)N(C)C[C@H](C)C[C@@]2(C)O)O[C@H](C)C[C@@H]1N(C)C` [Example 2, 2′-O-[3-(Propanoylamino)propyl]-9-deoxo-9a-methyl-9a-aza-9a-homoerythromycin A], in assay [1], the inhibition at 50 µM is greater than 40%. The “reduction of neutrophil number in BALF, statistical significance” value (“reduction … statistical significance” below) in the assay on Male BALB/c mice (dose of 100 mg/kg) is “no statistical significance”. Besides, in the assay on Male BALB/c mice (dose of 100 mg/kg, vs vehicle treated smoke challenged animals), the “inhibition of neutrophil number in BALF” value is recorded as “less than 10%”.
For the molecule `CC[C@H]1OC(=O)[C@H](C)[C@@H](O[C@H]2C[C@@](C)(OC)[C@@H](O)[C@H](C)O2)[C@H](C)[C@@H](O[C@@H]2O[C@H](C)C[C@H](N(C)C)[C@H]2OCCCNC(=O)COC)[C@](C)(O)C[C@@H](C)CN(C)[C@H](C)[C@@H](O)[C@]1(C)O` [Example 16, 2′-O-{3-[(Methoxyacetyl)amino]propyl}-9-deoxo-9a-methyl-9a-aza-9a-homoerythromycin A], the inhibition at 50 µM in assay [1] was greater than 40%. For the same molecule, the inhibition in vivo at 100 mg/kg in the assay on male BALB/cJ mice (setting [2]) and in the assay on male BALB/cJ mice (setting [3]) was greater than 50% throughout. Besides, in the assay on Male BALB/c mice (dose of 30 mg/kg), the “reduction … statistical significance” value is “statistically significantly reduced”.
For the molecule `CC[C@H]1OC(=O)[C@H](C)[C@@H](O[C@H]2C[C@@](C)(OC)[C@@H](O)[C@H](C)O2)[C@H](C)[C@@H](O[C@@H]2O[C@H](C)C[C@H](N(C)C)[C@H]2OCCCNC(=O)c2c(C)nn(C)c2C)[C@](C)(O)C[C@@H](C)CN(C)[C@H](C)[C@@H](O)[C@]1(C)O` [Example 19, 2′-O-(3-{[(1,3,5-Trimethyl-1H-pyrazol-4-yl)carbonyl]amino}propyl)-9-deoxo-9a-methyl-9a-aza-9a-homoerythromycin A], the inhibition at 50 µM in assay [1] is greater than 40%. Moreover, the inhibition in vivo at 100 mg/kg with male BALB/cJ mice (setting [2]) and in the assay with male BALB/cJ mice (setting [3]) was greater than 50% in each case.
`CC[C@H]1OC(=O)[C@H](C)[C@@H](O[C@H]2C[C@@](C)(OC)[C@@H](O)[C@H](C)O2)[C@H](C)[C@@H](O[C@@H]2O[C@H](C)C[C@H](N(C)C)[C@H]2OCCCNC(=O)c2cccnc2)[C@](C)(O)C[C@@H](C)CN(C)[C@H](C)[C@@H](O)[C@]1(C)O` [Example 20, 2′-O-{3-[(3-Pyridinylcarbonyl)amino]propyl}-9-deoxo-9a-methyl-9a-aza-9a-homoerythromycin A]: the inhibition at 50 µM in assay [1] was greater than 40%. Also, the inhibition in vivo at 100 mg/kg in the assay on male BALB/cJ mice (setting [2]) and in the assay on male BALB/cJ mice (setting [3]) was greater than 30% throughout.
Turning to `CCOCC(=O)NCCCO[C@H]1[C@H](O[C@@H]2[C@@H](C)[C@H](O[C@H]3C[C@@](C)(OC)[C@@H](O)[C@H](C)O3)[C@@H](C)C(=O)O[C@H](CC)[C@@](C)(O)[C@H](O)[C@@H](C)N(C)C[C@H](C)C[C@@]2(C)O)O[C@H](C)C[C@@H]1N(C)C` [Example 21, 2′-O-{3-[(Ethyloxyacetyl)amino]propyl}-9-deoxo-9a-methyl-9a-aza-9a-homoerythromycin A], in assay [1], the inhibition at 50 µM was greater than 40%. Also, the inhibition in vivo at 100 mg/kg in the assay on male BALB/cJ mice (setting [2]) and with male BALB/cJ mice (setting [3]) was greater than 50% in each case. Further, the “reduction … statistical significance” value in the assay with Male BALB/c mice (dose of 30 mg/kg) is recorded as “statistically significantly reduced”.
On to `CC[C@H]1OC(=O)[C@H](C)[C@@H](O[C@H]2C[C@@](C)(OC)[C@@H](O)[C@H](C)O2)[C@H](C)[C@@H](O[C@@H]2O[C@H](C)C[C@H](N(C)C)[C@H]2OCCCNC(=O)C2CCOCC2)[C@](C)(O)C[C@@H](C)CN(C)[C@H](C)[C@@H](O)[C@]1(C)O` [Example 25, 2′-1-{3-[(Tetrahydro-2H-pyran-4-ylcarbonyl)amino]propyl}-9-deoxo-9a-methyl-9a-aza-9a-homoerythromycin A], for which the inhibition at 50 µM in assay [1] is greater than 40%. For the same molecule, the inhibition in vivo at 100 mg/kg in the assay on male BALB/cJ mice (setting [2]) and with male BALB/cJ mice (setting [3]) was greater than 50% in each case.

The values above are taken from US20110281812A1, “Compounds” (priority 2009, published 2011).
